Holding throughout (experiment): Kinobeads competition binding, HL60 cell lysate
Holding throughout (parameters): endogenous in cells
Common to all, as to settings: 10 μM free compound

The target of assay [1] is MLK4 (Homo sapiens, UniProt Q5TCX8). As for the experimental part:
(§1) To one aliquot of cell lysate 10 μM of the free compound (FIG. 3, CZC31326) was added and allowed to bind to proteins in the lysate. Then the affinity matrix with the immobilized compound (Example 1) was added to capture proteins that were not interacting with the previously added free compound. Beads were separated from the lysate and bead bound proteins were eluted in SDS sample buffer and subsequently separated by SDS-Polyacrylamide gel electrophoresis (FIG. 4). Suitable gel bands were cut out and subjected to in-gel proteolytic digestion with trypsin. The second lysate aliquot was processed identically, however no free compound was added (DMSO solvent control). Peptides originating from samples 1 and 2 were labeled with iTRAQ reagents (iTRAQ 114 and iTRAQ 117) and the combined samples were analyzed with a nano-flow liquid chromatography system coupled online to a tandem mass spectrometer (LC-MS/MS) experiment followed by iTRAQ reporter ion quantification in the MS/MS spectra (Ross et al., 2004. Mol. Cell. Proteomics 3(12):1154-1169). Further experimental protocols can be found in WO2006/134056 and a previous publication (Bantscheff et al., 2007. Nature Biotechnology 25, 1035-1044). Sepharose-beads with the immobilized compound (100 μl beads per pull-down experiment) were equilibrated in lysis buffer and incubated with a cell lysate sample containing 50 mg of protein on an end-over-end shaker (Roto Shake Genie, Scientific Industries Inc.) for 2 hours at 4° C. Beads were collected, transferred to Mobicol-columns (MoBiTech 10055) and washed with 10 ml lysis buffer containing 0.4% NP40 detergent, followed by 5 ml lysis buffer containing 0.2% detergent. To elute bound proteins, 60 μl 2×SDS sample buffer was added to the column. The column was incubated for 30 minutes at 50° C. and the eluate was transferred to a siliconized microfuge tube by centrifugation. Proteins were then alkylated with 108 mM iodoacetamid. Proteins were then separated by SDS-Polyacrylamide electrophoresis (SDS-PAGE). The peptide extracts of samples treated with 10 μM of free compound (CZC31326) and the solvent control (0.5% DMSO) were treated with different variants of the isobaric tagging reagent (iTRAQ Reagents Multiplex Kit, part number 4352135, Applied Biosystems, Foster City, Calif., USA). The iTRAQ reagents are a set of multiplexed, amine-specific, stable isotope reagents that can label peptides on amino groups in up to four different biological samples enabling simultaneous identification and quantitation of peptides. The iTRAQ reagents were used according to instructions provided by the manufacturer. The samples were resuspended in 10 μl 50 mM TEAB solution, pH 8.5 and 10 μl ethanol were added. The iTRAQ reagent was dissolved in 120 μl ethanol and 10 μl of reagent solution were added to the sample. The labeling reaction was performed at room temperature for one hour on a horizontal shaker and stopped by adding 5 μl of 100 mM TEAB and 100 mM glycine in water. The two labeled sampled were then combined, dried in a vacuum centrifuge and resuspended in 10 μl of 0.1% formic acid in water. Relative protein quantitation was performed using peak areas of iTRAQ reporter ion signals essentially as described in an earlier publication (Bantscheff et al., 2007. Nature Biotechnology 25, 1035-1044).

Assay [2] concerns the target AurB (Homo sapiens, UniProt Q96GD4). As for the experimental part:
as §1

The target of assay [3] is T1, GCK (Homo sapiens, UniProt Q12851).
T1 sequence (Q12851 1-820): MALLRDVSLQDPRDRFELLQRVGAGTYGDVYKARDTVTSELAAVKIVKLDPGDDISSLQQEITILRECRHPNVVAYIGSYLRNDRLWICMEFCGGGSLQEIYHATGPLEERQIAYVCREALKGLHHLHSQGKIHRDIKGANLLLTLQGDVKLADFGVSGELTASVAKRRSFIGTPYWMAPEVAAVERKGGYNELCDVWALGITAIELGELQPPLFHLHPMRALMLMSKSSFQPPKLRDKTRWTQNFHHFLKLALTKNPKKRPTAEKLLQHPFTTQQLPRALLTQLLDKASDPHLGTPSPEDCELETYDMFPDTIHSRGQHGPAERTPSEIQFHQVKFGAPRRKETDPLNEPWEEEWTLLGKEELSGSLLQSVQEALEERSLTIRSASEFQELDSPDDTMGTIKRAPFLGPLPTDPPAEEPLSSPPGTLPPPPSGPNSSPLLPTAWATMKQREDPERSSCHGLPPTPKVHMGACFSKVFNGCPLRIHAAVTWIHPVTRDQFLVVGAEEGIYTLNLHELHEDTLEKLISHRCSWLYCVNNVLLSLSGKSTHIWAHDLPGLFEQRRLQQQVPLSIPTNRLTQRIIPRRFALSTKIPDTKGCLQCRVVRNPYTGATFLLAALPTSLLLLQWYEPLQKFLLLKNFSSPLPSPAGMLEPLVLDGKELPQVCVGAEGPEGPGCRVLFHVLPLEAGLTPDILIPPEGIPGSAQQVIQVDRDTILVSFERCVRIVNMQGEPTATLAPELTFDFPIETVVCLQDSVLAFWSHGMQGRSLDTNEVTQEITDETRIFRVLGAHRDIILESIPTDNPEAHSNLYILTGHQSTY
How it is done: as §1

For assay [4], the target named is T2, TBK1 (Homo sapiens, UniProt Q9UHD2).
T2 sequence (Q9UHD2 1-729): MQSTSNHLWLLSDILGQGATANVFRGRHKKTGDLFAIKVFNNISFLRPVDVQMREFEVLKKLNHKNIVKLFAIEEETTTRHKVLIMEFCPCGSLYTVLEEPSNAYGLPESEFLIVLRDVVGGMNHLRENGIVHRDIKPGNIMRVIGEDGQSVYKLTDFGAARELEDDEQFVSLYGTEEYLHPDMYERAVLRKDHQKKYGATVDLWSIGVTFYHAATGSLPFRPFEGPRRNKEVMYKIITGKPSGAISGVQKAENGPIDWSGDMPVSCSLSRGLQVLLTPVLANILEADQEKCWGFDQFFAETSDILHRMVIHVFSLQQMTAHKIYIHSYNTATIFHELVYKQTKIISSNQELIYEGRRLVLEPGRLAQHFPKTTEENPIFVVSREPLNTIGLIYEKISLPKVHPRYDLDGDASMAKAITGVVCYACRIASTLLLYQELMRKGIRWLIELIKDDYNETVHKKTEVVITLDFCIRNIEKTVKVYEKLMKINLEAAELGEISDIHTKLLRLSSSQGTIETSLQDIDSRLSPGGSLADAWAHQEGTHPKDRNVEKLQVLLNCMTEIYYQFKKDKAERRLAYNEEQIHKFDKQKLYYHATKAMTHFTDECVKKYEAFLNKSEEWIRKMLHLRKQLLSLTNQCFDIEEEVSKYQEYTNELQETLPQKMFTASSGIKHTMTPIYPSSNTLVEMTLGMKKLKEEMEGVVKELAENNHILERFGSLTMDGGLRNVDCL
How it is done:
as §1

Each structure is given as a SMILES string.

We go through one molecule from patent publication US20120270237A9, “METHODS FOR THE IDENTIFICATION OF KINASE INTERACTING MOLECULES AND FOR THE PURIFICATION OF KINASE PROTEINS” (Cellzone AG, priority 2009, published 2012).

Chain of AurB (Q96GD4 whole entry): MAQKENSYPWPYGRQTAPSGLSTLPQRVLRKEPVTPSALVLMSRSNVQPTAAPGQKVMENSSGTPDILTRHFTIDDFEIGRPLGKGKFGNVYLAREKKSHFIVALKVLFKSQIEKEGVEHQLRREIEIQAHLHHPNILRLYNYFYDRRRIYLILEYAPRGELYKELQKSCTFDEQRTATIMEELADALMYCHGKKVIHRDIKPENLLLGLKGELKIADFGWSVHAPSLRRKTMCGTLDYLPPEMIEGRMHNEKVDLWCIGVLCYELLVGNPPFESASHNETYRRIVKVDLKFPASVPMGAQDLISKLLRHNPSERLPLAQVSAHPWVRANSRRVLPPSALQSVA
Chain of MLK4 (Q5TCX8 whole entry): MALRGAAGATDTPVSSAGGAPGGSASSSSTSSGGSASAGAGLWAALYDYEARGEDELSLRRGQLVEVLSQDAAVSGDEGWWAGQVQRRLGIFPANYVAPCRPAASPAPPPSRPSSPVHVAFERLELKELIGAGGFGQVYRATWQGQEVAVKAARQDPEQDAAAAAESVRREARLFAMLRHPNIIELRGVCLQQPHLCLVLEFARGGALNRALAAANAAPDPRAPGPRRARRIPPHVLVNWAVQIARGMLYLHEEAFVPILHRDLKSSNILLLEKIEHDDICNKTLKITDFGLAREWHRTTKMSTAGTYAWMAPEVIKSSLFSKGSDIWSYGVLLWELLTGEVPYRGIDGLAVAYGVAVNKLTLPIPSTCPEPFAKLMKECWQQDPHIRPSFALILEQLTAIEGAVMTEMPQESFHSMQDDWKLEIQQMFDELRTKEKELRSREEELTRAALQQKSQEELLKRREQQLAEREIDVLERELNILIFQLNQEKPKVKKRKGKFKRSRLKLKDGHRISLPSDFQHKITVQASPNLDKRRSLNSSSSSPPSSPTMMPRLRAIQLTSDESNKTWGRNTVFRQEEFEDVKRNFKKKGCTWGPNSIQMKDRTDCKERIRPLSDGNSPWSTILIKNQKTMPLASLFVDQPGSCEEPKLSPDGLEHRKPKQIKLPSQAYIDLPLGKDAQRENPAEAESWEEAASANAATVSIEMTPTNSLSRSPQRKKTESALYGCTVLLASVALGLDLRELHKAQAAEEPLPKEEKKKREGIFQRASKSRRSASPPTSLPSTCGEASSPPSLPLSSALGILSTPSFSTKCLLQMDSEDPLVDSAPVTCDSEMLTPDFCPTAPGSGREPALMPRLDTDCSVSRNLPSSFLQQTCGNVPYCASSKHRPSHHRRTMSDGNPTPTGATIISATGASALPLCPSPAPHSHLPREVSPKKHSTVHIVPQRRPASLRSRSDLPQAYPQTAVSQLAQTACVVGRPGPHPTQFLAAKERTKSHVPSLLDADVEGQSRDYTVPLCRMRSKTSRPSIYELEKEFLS

For `CS(=O)(=O)Nc1ccccc1Nc1nc(Nc2cccc(OCCN)c2)ncc1Cl` [CZC31326, N-(2-(2-(3-(2-aminoethoxy)phenylamino)-5-chloropyrimidin-4-ylamino)phenyl)methanesulfonamide], the inhibition at 10 µM in assay [1] amounted to 95%; in assay [2] it was 95%; in assay [3], 96.5%; in assay [4], 94.8%.

Broadly, the inhibition is the share of the control response that was lost under treatment. Higher therefore signals a response far below the control.
